US9695155B2, “Herbicidal substituted pyrimidinyloxy benzene compounds” (E. I. DU PONT DE NEMOURS AND COMPANY, priority 2013, dated 2017)

Key:
kochia [1] = test: Test A preemergence; type: in vivo, Kochia scoparia
In short: (§1)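 Visual 0–100 rating (100 = complete control) taken about 10 d post-treatment relative to untreated checks. Preemergence: directed soil spray on sown loam/sand pots. Postemergence: seedlings 2–10 cm, 1–2 leaf. Non-phytotoxic solvent formulation with surfactant.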

kochia [2] = test: Test A postemergence; type: in vivo, Kochia scoparia
In short: as §1

Italian ryegrass = test: Test A postemergence; type: in vivo, Lolium multiflorum
In short: as §1

blackgrass = test: Test A postemergence; type: in vivo, Alopecurus myosuroides
In short: as §1

galium = test: Test A postemergence; type: in vivo, Galium aparine
In short: as §1

[3] = 125 g ai/ha, 0 to 100 scale where 0 is no effect and 100 is complete control
[4] = 500 g ai/ha, 0 to 100 scale where 0 is no effect and 100 is complete control
[5] = 1000 g ai/ha, 0 to 100 scale, 0 no effect, 100 complete control, approx. 10 days
[6] = 1000 g ai/ha, 0 to 100 scale, 0 no effect, 100 complete control
[7] = 31 g ai/ha, 0 to 100 scale where 0 is no effect and 100 is complete control, visual, approximately 10 days
[8] = 31 g ai/ha, 0 to 100 scale, 0 no effect, 100 complete control
[9] = 125 g ai/ha, 0 to 100 scale, 0 no effect, 100 complete control

SMILES | Plant response rating, Kochia (kochia [1]; [3]) | Kochia plant response rating (kochia [1]; [5]) | Plant response rating, Kochia (kochia [2]; [6]) | Plant response rating, Ryegrass, Italian (Italian ryegrass; [6]) | Plant response rating, Blackgrass (blackgrass; [6]) | Plant response rating, Galium (galium; [6]) | Plant response rating, Kochia (kochia [1]; [7]) | Plant response rating, Kochia (kochia [2]; [8]) | Kochia plant response rating (kochia [2]; [3]) | Plant response rating, Ryegrass, Italian (Italian ryegrass; [8]) | Ryegrass, Italian plant response rating (Italian ryegrass; [3]) | Plant response rating, Blackgrass (blackgrass; [8]) | Blackgrass plant response rating (blackgrass; [3]) | Plant response rating, Galium (galium; [8]) | Galium plant response rating (galium; [3]) | also measured
Clc1cnc(Oc2cccc(Br)c2-n2cc(I)nn2)nc1 [Compound 117] | 70 | – | – | – | – | – | – | – | – | – | – | – | – | – | – | Kochia plant response rating (kochia [1]; [4]): 100; Plant response rating, Kochia (kochia [2]; [3]): 100; Plant response rating, Kochia (kochia [2]; [4]): 100; Plant response rating, Ryegrass, Italian (Italian ryegrass; [4]): 90; Plant response rating, Blackgrass (blackgrass; [3]): 40; Plant response rating, Blackgrass (blackgrass; [4]): 80; Plant response rating, Galium (galium; [3]): 100; Plant response rating, Galium (galium; [4]): 100
FCc1cn(-c2ccccc2Oc2ncc(Cl)cn2)nn1 [Compound 123] | – | 100 | 100 | 90 | 90 | 100 | – | – | – | – | – | – | – | – | – | –
N#Cc1cnn(-c2c(Br)cccc2Oc2ncc(Cl)cn2)c1 [Compound 140] | 100 | – | – | – | – | – | 60 | 90 | 100 | 0 | 30 | 30 | 70 | 80 | 90 | –
FCc1cccc(Oc2ncc(F)cn2)c1-n1cc(I)cn1 [Compound 152] | 90 | – | – | – | – | – | 20 | 20 | 80 | 0 | 20 | 50 | 90 | 90 | 90 | –
Clc1cnc(Oc2ccccc2-n2cc(C3CC3)nn2)nc1 [Compound 160, 5-chloro-2-[2-(4-cyclopropyl-1H-1,2,3-triazol-1-yl)phenoxy]pyrimidine] | – | 100 | 100 | 90 | 100 | 100 | – | – | – | – | – | – | – | – | – | –
FCc1cccc(Oc2ncc(Cl)cn2)c1-n1cc(I)cn1 [Compound 245] | – | – | – | – | – | – | 0 | 60 | – | 0 | – | 30 | – | 100 | – | Kochia plant response rating (0 to 100 scale) (kochia [1]; 125 g ai/ha): 30; Plant response rating, Kochia (kochia [2]; [9]): 100; Plant response rating, Ryegrass, Italian (Italian ryegrass; [9]): 20; Plant response rating, Blackgrass (blackgrass; [9]): 70; Plant response rating, Galium (galium; [9]): 100
